The source of these data is publication PMC7997032, “Organic synthesis and anti-influenza A virus activity of cyclobakuchiols A, B, C, and D” (PLoS ONE, 2021).

Experiment [1] deals with A/PR/8/34 virus. Nature of the experiment: Influenza A viral growth assay (viral titer of culture media). Conditions: A/PR/8/34 (PR8), 12.5uM; for viral titer of culture media, ave: average of #1-3 exp (n=9); for viral titer of culture media, individual replicate: replicates of #1-3 exp. Also on record: viral titer of culture media, individual replicate / viral titer of culture media, ave: unit not given here. The class given is cell-based, influenza A H1N1 virus.

Experiment [2] relates to A/WSN/33 virus. The experiment is described as above. The class given is cell-based, influenza A H1N1 virus. The conditions noted are these: A/WSN/33 (WSN), 12.5uM; for viral titer of culture media, ave: average of #1-3 exp (n=9); for viral titer of culture media, individual replicate: replicates of #1-3 exp.

“And” between values parts separate entries of the source, which are not always exact repeats. Equal entries are not always repeated.

Consider `C=C[C@]1(C)CC[C@H](C(=C)C)[C@@H](c2ccc(O)cc2)C1` [(1R,3R,4R)-cyclobakuchiol A], for which the “viral titer of culture media, ave” value in experiment [1] (12h) is 31111.1; in experiment [1] (24h) it was 25555.6; in experiment [1] (48h), 28888.9; in experiment [1] (72h) it was 20000; in experiment [2] (12h) it was 10300; in experiment [2] (24h), 22944444. Further, the “viral titer of culture media, ave” value in experiment [2] (48h) is 177111111; in experiment [2] (72h) it was 106555556. Besides, the “viral titer of culture media, individual replicate” value (“viral titer … individual replicate” below) was 90000 and 60000 and 30000 (2×) and 10000 (3×) and 20000 (2×) in experiment [1] (12h); 40000 and 30000 (3×) and 10000 (3×) and 50000 and 20000 in experiment [1] (24h); 50000 (2×) and 30000 (2×) and 10000 (2×) and 20000 (2×) and 40000 in experiment [1] (48h); 10000 (6×) and 50000 and 30000 and 40000 in experiment [1] (72h); 300 and 1400 and 1000 and 40000 and 10000 (5×) in experiment [2] (12h); 2600000 and 3900000 and 1000000 and 60000000 and 10000000 and 9000000 and 20000000 and 30000000 and 70000000 in experiment [2] (24h). The “viral titer … individual replicate” value is 50000000 and 54000000 and 10000000 and 210000000 (2×) and 230000000 and 190000000 and 380000000 and 260000000 in experiment [2] (48h); 10000000 (2×) and 7000000 and 200000000 and 150000000 (2×) and 60000000 and 330000000 and 42000000 in experiment [2] (72h).

For the compound `C=C[C@]1(C)CC[C@@H](C(C)(C)O)[C@H](c2ccc(O)cc2)C1` [(1R,3S,4S)-cyclobakuchiol D], the “viral titer of culture media, ave” value is given as 23333.3 in experiment [1] (12h); 46666.7 in experiment [1] (24h); 42222.2 in experiment [1] (48h); 51111.1 in experiment [1] (72h); 10344.4 in experiment [2] (12h); 25855556 in experiment [2] (24h). Further, the figures for the “viral titer of culture media, ave” value in experiment [2] (48h) and in experiment [2] (72h) were 191111111 and 140200000, respectively. For the same compound, the “viral titer … individual replicate” value was 30000 (4×) and 40000 and 20000 and 10000 (3×) in experiment [1] (12h); 100000 and 30000 and 80000 and 20000 and 10000 (2×) and 50000 (2×) and 70000 in experiment [1] (24h); 40000 (2×) and 30000 and 90000 and 10000 (2×) and 20000 and 80000 and 60000 in experiment [1] (48h); 100000 (2×) and 10000 (3×) and 40000 and 20000 and 90000 and 80000 in experiment [1] (72h); 600 and 2000 and 500 and 20000 (3×) and 10000 (3×) in experiment [2] (12h); 2700000 and 4000000 and 1000000 and 30000000 (2×) and 10000000 and 80000000 and 25000000 and 50000000 in experiment [2] (24h). Moreover, the “viral titer … individual replicate” value in experiment [2] (48h) is 80000000 and 50000000 (2×) and 300000000 (2×) and 250000000 (3×) and 190000000; in experiment [2] (72h) it was 90000000 and 14000000 and 7800000 and 140000000 and 130000000 and 100000000 and 210000000 and 280000000 and 290000000.

As for `C=C[C@@](C)(/C=C/c1ccc(O)cc1)CCC=C(C)C` [天然型バクチオール], the “viral titer … individual replicate” value in experiment [1] (12h) was 10000 (4×) and 30000 (3×) and 40000 (2×); in experiment [1] (24h), 50000 and 10000 (5×) and 40000 (2×) and 20000; in experiment [1] (48h) it was 50000 and 20000 and 40000 and 10000 (3×) and 30000 (3×); in experiment [1] (72h), 30000 (2×) and 20000 (2×) and 40000 (2×) and 10000 (2×) and 80000; in experiment [2] (12h), 900 and 300 and 1100 and 30000 (2×) and 10000 (3×) and 50000; in experiment [2] (24h), 300000 and 1500000 and 900000 and 7000000 and 16000000 and 9000000 and 20000000 and 5000000 and 70000000. The “viral titer … individual replicate” value in experiment [2] (48h) is 50000000 and 74000000 and 26000000 and 320000000 and 280000000 and 330000000 and 260000000 and 290000000 and 350000000; in experiment [2] (72h), 10000000 and 29000000 and 52000000 and 150000000 and 240000000 and 210000000 and 200000000 (2×) and 260000000. Also, the “viral titer of culture media, ave” value was 22222.2 in experiment [1] (24h); 25555.6 in experiment [1] (48h); 31111.1 in experiment [1] (72h); 14411111 in experiment [2] (24h); 220000000 in experiment [2] (48h); 150111111 in experiment [2] (72h).

`C=C[C@]1(C)CC[C@@H](C(=C)C)[C@H](c2ccc(O)cc2)C1` [(1R,3S,4S)-cyclobakuchiol B]: the “viral titer of culture media, ave” value in experiment [1] (12h) came to 24444.4; in experiment [1] (24h), 30000; in experiment [1] (48h), 41111.1; in experiment [1] (72h), 58888.9; in experiment [2] (12h), 12633.3; in experiment [2] (24h), 25455556. The results for the “viral titer of culture media, ave” value in experiment [2] (48h) and in experiment [2] (72h) were 275666667 and 208055556, respectively. Moreover, the “viral titer … individual replicate” value in experiment [1] (12h) is 70000 and 30000 (2×) and 10000 (3×) and 20000 (3×); in experiment [1] (24h), 60000 and 50000 (2×) and 20000 (3×) and 10000 (2×) and 30000; in experiment [1] (48h), 40000 (3×) and 30000 (2×) and 80000 (2×) and 20000 and 10000; in experiment [1] (72h), 30000 (2×) and 40000 and 20000 and 10000 (2×) and 250000 and 80000 and 60000; in experiment [2] (12h) it was 1000 (2×) and 1700 and 10000 (3×) and 20000 (2×) and 40000; in experiment [2] (24h), 2000000 (2×) and 300000 and 80000000 and 30000000 and 16000000 and 40000000 and 8800000 and 50000000. The “viral titer … individual replicate” value in experiment [2] (48h) was 100000000 and 160000000 and 61000000 and 430000000 and 420000000 and 440000000 and 180000000 and 300000000 and 390000000; in experiment [2] (72h), 35000000 and 20000000 and 27500000 and 320000000 and 390000000 and 350000000 and 250000000 and 280000000 and 200000000.
